# Data: PubChem BioAssay AID2060892 (Molecular Pharmacology Branch, DTP, NCI, 2025)
# Tested on: HOP-62 complex spheroids with HUVEC/MSC, viability
# Experiment: Anticancer human tumor HOP-62 cell line growth inhibition [RAS];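 further: spheroids exposed to agents for seven days before readout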;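 on viability, T/C: 100% = DMSO vehicle control viability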
# Details: for IC50: curve of first compound; for viability, T/C: stronger effect = lower value
# Text: RAS pathway inhibitors in Combinations in Complex Spheroids
# A high-throughput screen of multi-cell type tumor spheroids was designed to identify active combinations of RAS pathway inhibitors and targeted small molecules. Complex spheroids include a stromal component modeled by human endothelial cells (HUVEC) and fibroblasts modeled by human mesenchymal stem cells (MSCs). The concentration ranges selected for each drug and investigational agent were based upon clinically achievable concentrations if the clinical Cmax of the agent was known.
# Compounds. The drugs and investigational agents: abemaciclib (NSC768073), cobimetinib (NSC768068), divarasib (GDC6063, NSC841802), docetaxel (NSC628503), GDC-1971 (RLY-1971, NSC841576), gemcitabine (NSC613327), inavolisib (NSC800729), ipatasertib (NSC767898), KB-0742 (NSC834161), MRTX-1133 (NSC836407), osimertinib (NSC779217), RMC-4630 (NSC839698), RMC-6236 (NSC851965), RMC-6291 (NSC852671), Ro-3306 (NSC812927), sapanisertib (NSC764658), SN-38 (NSC673596), staurosporine (NSC755774), SY5609 (NSC837396), and tovorafenib (DAY101, NSC766906), were obtained from the National Cancer Institute (NCI) Developmental Therapeutics Program Chemical Repository. The FDA-approved anticancer drug set is available from the NCI Developmental Therapeutics Program. […] The stock solutions were prepared in dimethyl sulfoxide (DMSO, Sigma-Aldrich, St. Louis, MO, cat. D2650) at 800-fold the tested concentration and stored at -70 degrees C prior to their use. All drugs and investigational agents were tested over a range starting from a high concentration at or near the clinical Cmax and decreasing in half-log increments. If the clinical Cmax for an agent had not been determined, the highest concentration tested was 10 microM.
# Cell Culture. All cells were maintained in an incubator at 37 degrees C and 5% CO2 with 95% humidity. The PDC lines were cultured according to standard operating procedures established by the NCI PDMR. All PDCs were thawed and cultured in Matrigel-coated flasks prepared with a working solution of 1X Ham's F-12 nutrient mix, without supplementation (Invitrogen, Waltham, MA, cat. 11765054), 100 U/mL penicillin-streptomycin (Invitrogen, cat. 15140122), and 2.5% Matrigel (Corning Inc., Corning, NY, cat. 354248) for the first three passages. The 362531-283-R-J2-PDC and 782815-120-R-J1-PDC lines were cultured in 6C/Colon 1B media, which includes advanced DMEM/F-12 (Thermo Fisher Scientific, cat. 12634028), 10 mM HEPES (Thermo Fisher Scientific, cat. 15630080), 1X GlutaMAX supplement (Thermo Fisher Scientific, cat. 35050061), 0.1 mg/mL primocin (InvivoGen, San Diego, CA, cat. ant-pm-2), 10% defined fetal bovine serum, heat inactivated (HyClone Laboratories Inc., Logan, UT, cat. SH30070.03HI), 50% L-WRN conditioned media (ATCC, cat. CRL-3276), 1.25 mM N-Acetyl-L-cysteine (Sigma-Aldrich, cat. A9165), 10 mM nicotinamide (Sigma-Aldrich, cat. N0636), 1X B-27 supplement (Thermo Fisher Scientific, cat. 17504044), 1X N-2 supplement (Thermo Fisher Scientific, cat. 17502048), 50 ng/mL human EGF (Thermo Fisher Scientific, cat. PHG0311), and 10 microM Y-27632 dihydrochloride (Tocris Bioscience, cat. 1254). The K12877-001-R-J1-PDC line was cultured in 6I media, which includes all 6C/Colon 1B media plus 10 ng/mL human FGF-10 (PeproTech, cat. 100-26), 1 ng/mL human FGF-2 (PeproTech, cat. 100-18B), 1 µM prostaglandin E2 (Tocris Bioscience, cat. 2296), […] hydrocortisone (Sigma-Aldrich, cat. H4001), and […] bovine insulin (Sigma-Aldrich, cat. I6634). The K86415-001-R-J1-PDC line was cultured in 6D media, which includes all 6C/Colon 1B media components minus the L-WRN conditioned media. The 485176-168-R4-J1-PDC was cultured in PANC media, which includes all 6C/Colon 1B media plus 100 ng/mL human FGF-10 (PeproTech, cat. 100-26), 500 nM SB-431542 (Selleckchem, cat. S1067), and 10 nM gastrin (Tocris Bioscience, cat. 3006). […]
# [1] = second compound 0.0316 µM, first compound 0.0316 µM
# [2] = second compound 0.0316 µM, first compound 0.1 µM
# [3] = second compound 0.0316 µM, first compound 0.316 µM
# [4] = second compound 0.0316 µM, first compound 1 µM
# [5] = second compound 0.1 µM, first compound 0.0316 µM
# [6] = second compound 0.1 µM, first compound 0.1 µM
# [7] = second compound 0.1 µM, first compound 0.316 µM
# [8] = second compound 0.1 µM, first compound 1 µM
# [9] = second compound 0.316 µM, first compound 0.0316 µM
# [10] = second compound 0.316 µM, first compound 0.1 µM
# [11] = second compound 0.316 µM, first compound 0.316 µM
# [12] = second compound 0.316 µM, first compound 1 µM
# [13] = second compound 1 µM, first compound 0.0316 µM
# [14] = second compound 1 µM, first compound 0.1 µM
# [15] = second compound 1 µM, first compound 0.316 µM
# [16] = second compound 1 µM, first compound 1 µM
# [17] = second compound 3.16 µM, first compound 0.0316 µM
# [18] = second compound 3.16 µM, first compound 0.1 µM
# [19] = second compound 3.16 µM, first compound 0.316 µM
# [20] = second compound 3.16 µM, first compound 1 µM
# [21] = second compound 10 µM, first compound 0.0316 µM
# [22] = second compound 10 µM, first compound 0.1 µM
# [23] = second compound 10 µM, first compound 0.316 µM
# [24] = second compound 10 µM, first compound 1 µM
compound,measurement,setting,value
CC(Nc1ccc2c(c1)OCCn1cc(N3C(=O)OCC3C(F)F)nc1-2)C(N)=O (centres undefined) + C#Cc1c(F)ccc2cc(O)cc(-c3ncc4c(N5CC6CCC(C5)N6)nc(OCC56CCCN5CC(F)C6)nc4c3F)c12,IC50,second compound 0.0316 µM,1330 nM
same,IC50,second compound 0.1 µM,1610 nM
same,IC50,second compound 0.316 µM,1020 nM
same,IC50,second compound 1 µM,751 nM
same,IC50,second compound 3.16 µM,96.4 nM
same,IC50,second compound 10 µM,< 31.6 nM
same,"viability, T/C",[1],80.5%
same,"viability, T/C",[2],69.2%
same,"viability, T/C",[3],54.6%
same,"viability, T/C",[4],59.8%
same,"viability, T/C","second compound 0.0316 µM, first compound 3.16 µM",42.8%
same,"viability, T/C","second compound 0.0316 µM, first compound 10 µM",32.9%
same,"viability, T/C",[5],85.6%
same,"viability, T/C",[6],78.5%
same,"viability, T/C",[7],57%
same,"viability, T/C",[8],58.4%
same,"viability, T/C","second compound 0.1 µM, first compound 3.16 µM",45.9%
same,"viability, T/C","second compound 0.1 µM, first compound 10 µM",32.8%
same,"viability, T/C",[9],86.9%
same,"viability, T/C",[10],68.9%
same,"viability, T/C",[11],59.6%
same,"viability, T/C",[12],52.9%
same,"viability, T/C","second compound 0.316 µM, first compound 3.16 µM",41.3%
same,"viability, T/C","second compound 0.316 µM, first compound 10 µM",31.4%
same,"viability, T/C",[13],78.5%
same,"viability, T/C",[14],67.4%
same,"viability, T/C",[15],53.5%
same,"viability, T/C",[16],50.6%
same,"viability, T/C","second compound 1 µM, first compound 3.16 µM",39.2%
same,"viability, T/C","second compound 1 µM, first compound 10 µM",28.4%
same,"viability, T/C",[17],67.8%
same,"viability, T/C",[18],41.7%
same,"viability, T/C",[19],40%
same,"viability, T/C",[20],32.3%
same,"viability, T/C","second compound 3.16 µM, first compound 3.16 µM",22.3%
same,"viability, T/C","second compound 3.16 µM, first compound 10 µM",15.1%
same,"viability, T/C",[21],31.3%
same,"viability, T/C",[22],22.8%
same,"viability, T/C",[23],19.2%
same,"viability, T/C",[24],17.3%
same,"viability, T/C","second compound 10 µM, first compound 3.16 µM",12.6%
same,"viability, T/C","second compound 10 µM, first compound 10 µM",10.2%
O=C(c1ccc(F)c(F)c1Nc1ccc(I)cc1F)N1CC(O)([C@@H]2CCCCN2)C1 + C#Cc1c(F)ccc2cc(O)cc(-c3ncc4c(N5CC6CCC(C5)N6)nc(OCC56CCCN5CC(F)C6)nc4c3F)c12,IC50,second compound 0.0316 µM,122 nM
same,IC50,second compound 0.1 µM,149 nM
same,IC50,second compound 0.316 µM,141 nM
same,IC50,second compound 1 µM,106 nM
same,IC50,second compound 3.16 µM,42.1 nM
same,IC50,second compound 10 µM,< 3.16 nM
same,"viability, T/C","second compound 0.0316 µM, first compound 0.00316 µM",107%
same,"viability, T/C","second compound 0.0316 µM, first compound 0.01 µM",113%
same,"viability, T/C",[1],97.3%
same,"viability, T/C",[2],54.2%
same,"viability, T/C",[3],30.8%
same,"viability, T/C",[4],25.2%
same,"viability, T/C","second compound 0.1 µM, first compound 0.00316 µM",112%
same,"viability, T/C","second compound 0.1 µM, first compound 0.01 µM",114%
same,"viability, T/C",[5],90.2%
same,"viability, T/C",[6],61%
same,"viability, T/C",[7],31.3%
same,"viability, T/C",[8],24%
same,"viability, T/C","second compound 0.316 µM, first compound 0.00316 µM",113%
same,"viability, T/C","second compound 0.316 µM, first compound 0.01 µM",108%
same,"viability, T/C",[9],88.3%
same,"viability, T/C",[10],58.1%
same,"viability, T/C",[11],32.2%
same,"viability, T/C",[12],26.8%
same,"viability, T/C","second compound 1 µM, first compound 0.00316 µM",96.7%
same,"viability, T/C","second compound 1 µM, first compound 0.01 µM",95.7%
same,"viability, T/C",[13],82%
same,"viability, T/C",[14],50.1%
same,"viability, T/C",[15],33.2%
same,"viability, T/C",[16],25.3%
same,"viability, T/C","second compound 3.16 µM, first compound 0.00316 µM",73.6%
same,"viability, T/C","second compound 3.16 µM, first compound 0.01 µM",63.6%
same,"viability, T/C",[17],56.3%
same,"viability, T/C",[18],36.5%
same,"viability, T/C",[19],22.3%
same,"viability, T/C",[20],18.3%
same,"viability, T/C","second compound 10 µM, first compound 0.00316 µM",46.4%
same,"viability, T/C","second compound 10 µM, first compound 0.01 µM",47.9%
same,"viability, T/C",[21],32.2%
same,"viability, T/C",[22],23.9%
same,"viability, T/C",[23],12.5%
same,"viability, T/C",[24],11.7%
